Measured values from US20250186436A1 (4E Therapeutics, Inc., priority 2021, published 2025).
Values joined by “and” are separate entries in the source; they are usually repeats but may differ in a detail not shown here. Equal entries are not always repeated. Where two headings read alike, the source gives them in different places.

What was measured:
[1] = PK study in male Sprague-Dawley rats, IV 0.5 mg/kg and PO 1 mg/kg in 10% DMA/PG (Example 5); format: in vivo; settings: for MRT inf: MRTinf
Experimental: Example 5: PK study of 4ET-03-053 in male Sprague-Dawley rats with IV (0.5 mg kg; 10% DMI 15% EtOH 35% PG 40% NS) and PO (1 mg kg; 10% DMA PG) dosing
In male Sprague-Dawley rats, following IV administration with 0.5 mg/kg 4ET-03-053, plasma concentrations declined in a multiphasic manner with an initial concentration (Co) of 1.24 ug/mL and a last measurable concentration (Clast) of 33.2 ng/mL at 24 h post dose.
Table 15 provides plasma and brain concentrations at 2 hr after a single P0 dose of 1 mg/kg.

Wistar rats = experiment: Intravenous self-administration with oxycodone and saline regimen; format: in vivo; settings: rat, in vivo
Experimental: Ten male and eleven female Wistar rats (Charles River, Hollister, CA) were used in this study. Rats were housed in groups of 2-3 per cage prior to surgery, and then individually housed to protect their catheters, in a temperature-controlled (22° C.) vivarium on a 12/12h light/dark cycle (lights off at 8:00 AM) with ad libitum access to food and water. The rats acclimated to the animal facility for at least 7 days before surgery. All procedures adhered to the National Institutes of Health Guide for the Care and Use of Laboratory Animals and were approved by the Institutional Animal Care and Use Committee of The Scripps Research Institute.
For surgery, rats were anesthetized with 2 to 3% isoflurane. They were implanted with a silastic catheter (0.3 mm i.d.×0.64 mm o.d.; Dow Corning Co. Midland, MI) into the right external jugular vein under aseptic conditions. The distal end of the catheter was subcutaneously threaded to the back of the rat where it exited via a metal guide cannula (22G; Plastics One Inc., Roanoke, VA) that was anchored at the back of the rat and closed with a small plastic cap and metal cover cap to keep the inside part of the catheter clean and protected (Caine S B, et al. “Effects of dopamine D-1 and D-2 antagonists on cocaine self-administration under different schedules of reinforcement in the rat” J Pharmacol Exp Ther. 270(1):209-18 (1994); Wee S, et al. “Effects of dose and session duration on cocaine self-administration in rats” J Pharmacol Exp Ther. 320(3):1134-43 (2007); Zorrilla E P, et al. “Extended access cocaine self-administration differentially activates dorsal raphe and amygdala corticotropin-releasing factor systems in rats” Addict Biol. 17(2):300-8 (2012); Valtcheva M V, et al. “Surgical extraction of human dorsal root ganglia from organ donors and preparation of primary sensory neuron cultures” Nat Protoc. 11:1877-1888 (2016)). All incisions were closed using veterinary tissue adhesive. After surgery, rats were given analgesic (Flunixin, 2.5 mg/kg s.c.).
Rats were allowed 5-7 days for recovery prior to self-administration.
The patency of catheters in the rats was tested using an ultra-short-acting barbiturate methohexital sodium (Brevital, Eli Lilly, Indianapolis, 1N, 10 mg/mL, 2 mg/rat) every 10-12 days during the study. Generally, a total loss of muscle tone within 3 s after a methohexital sodium injection indicates the patency of a catheter. Any animal that failed the test was excluded from the study.
During experimental sessions, each rat was placed in a standard operant chamber, which was placed in a light- and sound-attenuating cubicle (28×26×20 cm; Med Associates Inc., St. Albans, VT). The front door and the back wall of the chamber were made of transparent plastic, and the other walls were opaque metal. The chamber had two retractable response levers mounted on one side of the opaque walls. A stimulus light was mounted above each lever. A drug injection was delivered by a syringe pump (Razel Scientific Instruments, Georgia, VT) located on top of the cubicle. Experimental sessions were controlled and recorded by a PC computer with custom interface and software in the experimental room.
Experimental sessions were conducted once a day, 5-7 days a week during the dark (active) cycle. After being flushed with 0.9% saline, a rat's indwelling catheter was connected to a tube that exited the chamber through a metal spring and a swivel and was connected to a syringe pump. After the drug delivery system was connected to the rat, the chamber was closed, and the 2 hr session was started immediately. The start of a session was signaled by the presentation of two response levers into the chamber. […] During an injection, stimulus lights above both levers were illuminated and lasted throughout a time-out period (20 s) that followed each injection. Pressing the left lever was counted but had no other programmed consequences. […]

[2] = Liver microsome stability; settings: mouse, liver microsomes
[3] = male Sprague-Dawley rats, IV 0.5 mg/kg, 10% DMI:15% EtOH:35% PG:40% NS, individual animals, 0.5 mg/kg
[4] = male, Sprague-Dawley, rat, in vivo, iv, 0.5 mg/kg
[5] = male, Sprague-Dawley, rat, in vivo, po, 1 mg/kg

Cc1cc(Nc2cc(N)ncn2)c(=O)n2c1C(=O)NC21CCC2(CC2)CC1 [4ET-03-053, 6″-((6-Aminopyrimidin-4-yl)amino)-8″-methyl-2″H-dispiro[cyclopropane-1,1′-cyclohexane-4′,3″-imidazo[1,5-a]pyridine]-1″,5″-dione]
AUClast [1, 3]: 4654 ng·h/mL and 3767 ng·h/mL | Clast [1, 3]: 36.7 ng/mL and 29.7 ng/mL | C0 [1, 4]: 1240 ng/mL | AUC(0-inf) ([1]; male, Sprague-Dawley, rat, in vivo, iv, 0.5 mg/kg, AUCinf): 4080 ng·h/mL | clearance ([1]; male, Sprague-Dawley, rat, in vivo, iv, 0.5 mg/kg, CLp): 2.04 mL/min/kg | MRT inf [1, 4]: 7.69 h | Vd ([1]; male, Sprague-Dawley, rat, in vivo, iv, 0.5 mg/kg, Vss): 0.942 L/kg | concentration at 24 h ([1]; male, Sprague-Dawley, rat, in vivo, iv, 0.5 mg/kg, male Sprague-Dawley rats, 0.5 mg/kg IV, at 24 h, read-out: last measurable concentration (Clast)): 33.2 ng/mL | AUC(0-t) ([1]; male, Sprague-Dawley, rat, in vivo, iv, 0.5 mg/kg, male Sprague-Dawley rats, IV 0.5 mg/kg, 10% DMI:15% EtOH:35% PG:40% NS, individual animals, read-out: AUClast): 4030 ng·h/mL | concentration at 24 h ([1]; male, Sprague-Dawley, rat, in vivo, iv, 0.5 mg/kg, male Sprague-Dawley rats, IV 0.5 mg/kg, 10% DMI:15% EtOH:35% PG:40% NS, individual animals, read-out: Clast): 33.1 ng/mL | AUC(0-t) ([1]; male, Sprague-Dawley, rat, in vivo, iv, 0.5 mg/kg, male Sprague-Dawley rats, IV 0.5 mg/kg, 10% DMI:15% EtOH:35% PG:40% NS, mean (n = 3), read-out: AUClast): 4150 ng·h/mL | concentration at 24 h ([1]; male, Sprague-Dawley, rat, in vivo, iv, 0.5 mg/kg, male Sprague-Dawley rats, IV 0.5 mg/kg, 10% DMI:15% EtOH:35% PG:40% NS, mean (n = 3), read-out: Clast): 33.2 ng/mL | Vd ([1]; male, Sprague-Dawley, rat, in vivo, iv, 0.5 mg/kg, steady-state volume of distribution (Vss)): 0.87 L/kg | clearance ([1]; male, Sprague-Dawley, rat, in vivo, iv, 0.5 mg/kg, systemic clearance (CLp)): 1.87 mL/min/kg | half-life ([1]; male, Sprague-Dawley, rat, in vivo, iv, 0.5 mg/kg, t1/2): 7.26 h | half-life ([1]; male, Sprague-Dawley, rat, in vivo, iv, 0.5 mg/kg, terminal half-life (t1/2)): 7.33 h | AUC(0-inf) ([1]; male, Sprague-Dawley, rat, in vivo, iv, 0.5 mg/kg, total systemic exposure (AUCinf)): 4500 ng·h/mL | Tmax [1, 5]: 0.5 h | bioavailability [1, 5]: 76.7% | time to peak plasma concentration [1, 5]: ≤ 30 min | AUC(0-inf) ([1]; male, Sprague-Dawley, rat, in vivo, po, 1 mg/kg, AUCinf): 7020 ng·h/mL | AUC(0-t) ([1]; male, Sprague-Dawley, rat, in vivo, po, 1 mg/kg, AUClast): 6110 ng·h/mL | concentration at 24 hr ([1]; male, Sprague-Dawley, rat, in vivo, po, 1 mg/kg, Clast): 74.6 ng/mL | Cmax ([1]; male, Sprague-Dawley, rat, in vivo, po, 1 mg/kg, Cmax): 683 ng/mL | MRT inf [1, 5]: 10.6 h | concentration at 24 hr ([1]; male, Sprague-Dawley, rat, in vivo, po, 1 mg/kg, last measurable concentration): 74.6 ng/mL | Cmax ([1]; male, Sprague-Dawley, rat, in vivo, po, 1 mg/kg, peak plasma concentration (Cmax)): 683 ng/mL | half-life ([1]; male, Sprague-Dawley, rat, in vivo, po, 1 mg/kg, t1/2): 9.23 h | half-life ([1]; male, Sprague-Dawley, rat, in vivo, po, 1 mg/kg, terminal half-life (t1/2)): 9.23 h | AUC(0-inf) ([1]; male, Sprague-Dawley, rat, in vivo, po, 1 mg/kg, total systemic exposure (AUCinf)): 6900 ng·h/mL | Mean Difference, Šídák's multiple comparisons test (Wistar rats): 1.500 | Summary, Šídák's multiple comparisons test (Wistar rats): ns | addictive potential (Wistar rats): negligible addictive potential | numbers of infusions, multiple comparisons test: 0.05 mg/kg 4ET-03-053 and subsequent oxycodone (Wistar rats): significant differences | numbers of infusions, multiple comparisons test: 0.1 mg/kg 4ET-03-053 and the final oxycodone test (Wistar rats): significant differences | Mean Difference, Šídák's multiple comparisons test (Wistar rats; 0.05 mg/kg): −8.041 | Summary, Šídák's multiple comparisons test (Wistar rats; 0.05 mg/kg): ns | Mean Difference, Šídák's multiple comparisons test (Wistar rats; 0.15 mg/kg): 5.441 | Summary, Šídák's multiple comparisons test (Wistar rats; 0.15 mg/kg): ns | half-life [2]: 3.8 h
